Test results: publication PMC5278714, “Safety and Pharmacokinetics of CD101 IV, a Novel Echinocandin, in Healthy Adults” (Antimicrobial Agents and Chemotherapy, 2017)
Where two headings read alike, the source gives them in different places. Numbered stars: 1 amine (or outer) side, 2 acyl side, 3 side chain; on linkers, the order of the positions; unused ones are H or OH. Bridge positions count the residues as written; N and C are the ends. Square brackets hold non-standard residues; d marks the D form. Peptide text beside a SMILES is read from it. * marks the point of attachment. Orn(4R-OH,5R-OCH2CH2NMe3+) = C[N+](C)(C)CCO[C@@H](N[*:3])[C@H](O)C[C@H](N[*:1])C(=O)[*:2]; pTerphenylCO(4''-OnC5H11) = CCCCCOc1ccc(-c2ccc(-c3ccc(C(=O)*)cc3)cc2)cc1; hTyr(3S-OH,4S-OH) = N[C@H](C(=O)O)[C@H](O)[C@@H](O)c1ccc(O)cc1; Pro(3S-OH,4S-Me) = C[C@H]1CN[C@H](C(=O)O)[C@H]1O; Hyp = O=C(O)[C@@H]1C[C@@H](O)CN1

Columns and labels:
Assay type in all cases: in vivo, humans
healthy adults [1] = assay: Single-ascending-dose phase 1 study: safety and tolerability
Experimental: (§1) The single-ascending-dose and multiple-ascending-dose studies were phase 1, randomized, double-blind, dose-escalation, placebo-controlled, single-center safety trials of CD101 IV in healthy adults (ClinicalTrials.gov identifiers: NCT02516904 for the single-ascending-dose study; NCT02551549 for the multiple-ascending-dose study). In the single-ascending-dose study, 4 cohorts (corresponding to doses of 50, 100, 200, and 400 mg) of 8 subjects (6 active and 2 placebo) received CD101 IV or placebo infused over 60 (±5) min. In the multiple-ascending-dose study, 3 cohorts (cohort 1, 100 mg ×2 doses; cohort 2, 200 mg ×2 doses; cohort 3, 400 mg ×3 doses) of 8 subjects (6 active and 2 placebo) received CD101 IV or placebo (normal saline solution) infused over 60 (±5) min, with doses separated by 7 days.
(§2) All subjects were monitored for AEs throughout the study until 21 days after the last dose of study drug. Electrocardiograms, hematology and serum chemistry evaluations, and UA were performed at screening, on day −1, and at various time points during and for 14 days after the dosing period. Subjects remained in the clinical research unit for observation and safety assessments from day −1 until 7 days after the last dose of study drug. Three additional safety assessments were performed at weekly follow-up visits following the last dose of study drug. The long follow-up period ensured that any delayed safety events were captured, since CD101 has a very long t1/2 and plasma levels are expected to persist for several weeks. Safety was assessed ≥5 days after dosing by study physicians to determine whether it was safe to proceed to the next dose.
(§3) Safety was assessed in the safety analysis population. Safety was evaluated by presenting summaries of AEs, ECGs, clinical laboratory evaluations (hematology evaluation, chemistry panel, and UA), and vital signs. Adverse events were coded using the Medical Dictionary for Regulatory Activities Version 18.0. A TEAE was an AE that occurred during or after study drug administration and up through 21 (±1) days after study drug administration. The incidence of TEAEs was summarized by system organ class and preferred term, by relationship to study drug, and by severity. In addition, the incidence of serious TEAEs and the incidence of TEAEs leading to discontinuation of study drug were summarized by system organ class and preferred term. Descriptive statistics for clinical laboratory test results and vital signs, and for changes from baseline, were summarized by time point. Incidences of potentially clinically significant clinical laboratory results and vital signs were also summarized by time point. The numbers and percentages of abnormal ECGs were summarized by time point.

healthy adults [2] = assay: Multiple-ascending-dose phase 1 study: safety and tolerability
Experimental: as §1, §2, §3

[3] = Single-ascending-dose phase 1 study: plasma and urine pharmacokinetics; conditions: for Vd / clearance / half-life / Cmax: plasma, arithmetic mean; for Vd: iv; for Cmax: LC-MS/MS
Experimental: as §1
(§4) Extensive PK sampling from plasma and urine was performed for all subjects following study drug administration and over the 3 weeks after the last dose of study drug. Plasma and urine samples from subjects who received CD101 IV were analyzed by a bioanalytical laboratory for CD101 concentration using a validated liquid chromatography-tandem mass spectrometry method with a lower limit of quantitation of 10 ng/ml.
(§5) Pharmacokinetics were assessed in the PK analysis population and included Cmax, AUC, Cl, elimination rate constant (λz), and terminal t1/2. Plasma concentration-time profiles were constructed for each subject and dosing cohort. For each plasma concentration-time curve, PK parameters were determined directly from inspection of the data or calculated using noncompartmental methods with validated PK software (Phoenix WinNonlin, Version 6.3). Urine concentration data were used to determine renal excretion and drug recovery rates. The number of subjects was selected to allow sufficient evaluation of safety, tolerability, and PK and was consistent with phase 1 standards of practice ([44]).

[4] = Multiple-ascending-dose phase 1 study: plasma and urine pharmacokinetics; conditions: for Vd / clearance / half-life / level at 144 h: plasma; for Vd / clearance / half-life / level at 144 h / dose excreted: iv; for level at 144 h: read-out: trough concentration on day 7 (144 h postdose); for dose excreted: urine
Experimental: as §1, §4, §5

[5] = human, single 50 mg IV infusion over 1 h
[6] = human, single 100 mg IV infusion over 1 h
[7] = human, single 200 mg IV infusion over 1 h
[8] = human, single 400 mg IV infusion over 1 h
[9] = human, 100 mg, 100 mg IV once weekly x2, day 1, sampling interval 144 h, arithmetic mean
[10] = human, 100 mg, 100 mg IV once weekly x2, day 8, sampling interval 480 h, arithmetic mean
[11] = human, 200 mg, 200 mg IV once weekly x2, day 1, sampling interval 144 h, arithmetic mean
[12] = human, 200 mg, 200 mg IV once weekly x2, day 8, sampling interval 480 h, arithmetic mean
[13] = human, 400 mg, 400 mg IV once weekly x3, day 1, sampling interval 144 h, arithmetic mean
[14] = human, 400 mg, 400 mg IV once weekly x3, day 15, sampling interval 480 h, arithmetic mean
[15] = single and multiple doses, all dose levels

CCCCCOc1ccc(-c2ccc(-c3ccc(C(=O)N[C@H]4C[C@@H](O)[C@@H](OCC[N+](C)(C)C)NC(=O)[C@@H]5[C@@H](O)[C@@H](C)CN5C(=O)[C@H]([C@@H](C)O)NC(=O)[C@H]([C@H](O)[C@@H](O)c5ccc(O)cc5)NC(=O)[C@@H]5C[C@@H](O)CN5C(=O)[C@H]([C@@H](C)O)NC4=O)cc3)cc2)cc1 [CD101] ({pTerphenylCO(4''-OnC5H11)}-[Orn(4R-OH,5R-OCH2CH2NMe3+)]T[Hyp][hTyr(3S-OH,4S-OH)]T[Pro(3S-OH,4S-Me)]; lactam 1-C)
SAEs, severe AEs, withdrawals due to an AE, deaths (healthy adults [1]; both studies, all dose levels): no serious adverse events (SAEs), severe adverse events (AEs), withdrawals due to an AE, or deaths | laboratory abnormalities, vital signs, ECG (healthy adults [1]; both studies, all dose levels): no clinically meaningful trends in postbaseline laboratory abnormalities | overall safety and tolerability (healthy adults [1]; both studies, single dose up to 400 mg, multiple doses up to 400 mg once weekly for 3 weeks): safe and well tolerated at all dose levels tested | subjects with gastrointestinal disorders (system organ class) (healthy adults [1]; cohort 1 (single 50 mg)): 2 [33%] subjects [%] | subjects with musculoskeletal and connective tissue disorders (healthy adults [1]; cohort 1 (single 50 mg)): 2 [33%] subjects [%] | subjects with gastrointestinal disorders (system organ class) (healthy adults [1]; cohort 3 (single 200 mg)): 2 [33%] subjects [%] | subjects with general disorders and administration site conditions (healthy adults [1]; cohort 3 (single 200 mg)): 2 [33%] subjects [%] | subjects with musculoskeletal and connective tissue disorders (healthy adults [1]; cohort 3 (single 200 mg)): 2 subjects | subjects with moderate TEAEs (healthy adults [1]; cohort 3 (single 200 mg), ear pain): 1 subject | subjects with musculoskeletal and connective tissue disorders (healthy adults [1]; cohort 4 (single 400 mg)): 1 subject | subjects with moderate TEAEs (healthy adults [1]; cohort 4 (single 400 mg), headache): 1 subject | subjects with mild, transient infusion reactions (flushing, feeling hot, nausea, chest tightness) (healthy adults [2]; all CD101 cohorts, primarily cohort 3, most common with third dose): Four | subjects with TEAEs related to study drug (healthy adults [2]; cohort 1 (100 mg x2 weeks)): 1 subject | subjects with TEAEs related to study drug (healthy adults [2]; cohort 2 (200 mg x2 weeks)): 1 subject | subjects with moderate TEAEs (healthy adults [2]; cohort 2 (200 mg x2 weeks), arthropod bite and pruritus): 1 subject | subjects with TEAEs related to study drug (healthy adults [2]; cohort 3 (400 mg x3 weeks)): 4 subjects | subjects with gastrointestinal disorders (system organ class) (healthy adults [2]; cohort 3 (400 mg x3 weeks)): 4 [67%] subjects [%] | subjects with vascular disorders (system organ class) (healthy adults [2]; cohort 3 (400 mg x3 weeks)): 3 [50%] subjects [%] | subjects with moderate TEAEs (healthy adults [2]; cohort 3 (400 mg x3 weeks), constipation and myalgia): 2 subjects | Vd ([3]; human, 50 mg, single 50 mg IV infusion over 1 h, read-out: Vss (volume of distribution at steady state)): 36 L | Vd ([3]; human, 50 mg, single 50 mg IV infusion over 1 h, read-out: Vz (apparent volume of distribution during terminal phase)): 43.2 L | Vd ([3]; human, 100 mg, single 100 mg IV infusion over 1 h, read-out: Vss (volume of distribution at steady state)): 42.9 L | Vd ([3]; human, 100 mg, single 100 mg IV infusion over 1 h, read-out: Vz (apparent volume of distribution during terminal phase)): 50.6 L | Vd ([3]; human, 200 mg, single 200 mg IV infusion over 1 h, read-out: Vss (volume of distribution at steady state)): 34.4 L | Vd ([3]; human, 200 mg, single 200 mg IV infusion over 1 h, read-out: Vz (apparent volume of distribution during terminal phase)): 39.7 L | Vd ([3]; human, 400 mg, single 400 mg IV infusion over 1 h, read-out: Vss (volume of distribution at steady state)): 35.9 L | Vd ([3]; human, 400 mg, single 400 mg IV infusion over 1 h, read-out: Vz (apparent volume of distribution during terminal phase)): 41.6 L | clearance [3, 5]: 3.75 mL/min | half-life [3, 5]: 133 h | Cmax ([3]; human, single 100 mg IV infusion over 1 h, read-out: Cmax): 4860 ng/mL | clearance [3, 6]: 4 mL/min | half-life [3, 6]: 146 h | clearance [3, 7]: 3.65 mL/min | half-life [3, 7]: 125 h | clearance [3, 8]: 3.77 mL/min | half-life [3, 8]: 129 h | Cmax ([3]; single 400 mg IV infusion over 1 h): 22700 ng/mL | mean half-life (t1/2) through the first week (up to day 7) of plasma sampling ([3]; single 50 to 400 mg IV doses): > 80 h | Vss ([4]; 100 mg IV once weekly x2, day 8, arithmetic mean): 29.3 L | cumulative amount excreted in urine ([4]; cohort 1 (100 mg x2), day 1): 52.0 µg | mean renal clearance ([4]; cohort 1 (100 mg x2), day 1): 0.1877 mL/h | cumulative amount excreted in urine ([4]; cohort 1 (100 mg x2), day 8): 151.4 µg | cumulative amount excreted in urine ([4]; cohort 2 (200 mg x2), day 1): 145.0 µg | cumulative amount excreted in urine ([4]; cohort 2 (200 mg x2), day 8): 400.7 µg | cumulative amount excreted in urine ([4]; cohort 3 (400 mg x3), day 1): 330.6 µg | cumulative amount excreted in urine ([4]; cohort 3 (400 mg x3), day 15): 987.5 µg | mean renal clearance ([4]; cohort 3 (400 mg x3), day 15): 0.5965 mL/h | cumulative amount excreted in urine, times higher than on day 1 ([4]; days 8 and 15 vs day 1): approximately 3 times | t1/2 ([4]; following the first dose): approximately 80 h | Vd ([4]; human, 100 mg, 100 mg IV once weekly x2, day 1, arithmetic mean, read-out: Vss): 28.8 L | Vd ([4]; human, 100 mg, 100 mg IV once weekly x2, day 1, arithmetic mean, read-out: Vz): 29.5 L | clearance [4, 9]: 4.3 mL/min | half-life [4, 9]: 79.1 h | Vd ([4]; human, 100 mg, 100 mg IV once weekly x2, day 8, arithmetic mean, read-out: Vz): 33.8 L | clearance [4, 10]: 2.48 mL/min | half-life [4, 10]: 158 h | Vd ([4]; human, 200 mg, 200 mg IV once weekly x2, day 1, arithmetic mean, read-out: Vss): 31.7 L | Vd ([4]; human, 200 mg, 200 mg IV once weekly x2, day 1, arithmetic mean, read-out: Vz): 32.8 L | clearance [4, 11]: 4.65 mL/min | half-life [4, 11]: 81.3 h | Vd ([4]; human, 200 mg, 200 mg IV once weekly x2, day 8, arithmetic mean, read-out: Vss): 28.5 L | Vd ([4]; human, 200 mg, 200 mg IV once weekly x2, day 8, arithmetic mean, read-out: Vz): 30.9 L | clearance [4, 12]: 2.58 mL/min | half-life [4, 12]: 140 h | Vd ([4]; human, 400 mg, 400 mg IV once weekly x3, day 1, arithmetic mean, read-out: Vss): 29.6 L | Vd ([4]; human, 400 mg, 400 mg IV once weekly x3, day 1, arithmetic mean, read-out: Vz): 31.2 L | clearance [4, 13]: 4.47 mL/min | half-life [4, 13]: 81 h | Vd ([4]; human, 400 mg, 400 mg IV once weekly x3, day 15, arithmetic mean, read-out: Vss): 25.4 L | Vd ([4]; human, 400 mg, 400 mg IV once weekly x3, day 15, arithmetic mean, read-out: Vz): 27.9 L | clearance [4, 14]: 2.1 mL/min | half-life [4, 14]: 152 h | level at 144 h ([4]; human, 400 mg, following the first dose): ~4000 ng/mL | level at 144 h ([4]; human, 400 mg, following the third (last) dose): ~7000 ng/mL | half-life ([4]; human, following the second or third dose): ~150 h | dose excreted ([4]; human, all dose levels, both studies, read-out: fraction of dose excreted): < 1% | dose excreted ([4]; human, LC-MS/MS, read-out: amount of CD101 excreted in urine): ≤ 0.26% | AUC(0-t) ([4]; human, 200 mg IV once weekly x2, day 1, plasma, arithmetic mean, read-out: AUC0–168): 570 µg·h/mL | Cmax ([4]; human, 400 mg IV once weekly x3, day 1, plasma, arithmetic mean): 22700 ng/mL | apparent clearance [4, 15]: < 0.28 L/h | half-life (t1/2) [4, 15]: > 80 h
